Results on four compounds are retold here after US20080038198A1, “Method Of Screening Molecule Associated With Psychiatric Disorder” (MITSUBISHI PHARMA CORPORATION, priority 2004, published 2008).

“Also recorded” adds a separate entry of the source.

Common to all, as to format: in vivo, Caenorhabditis elegans
Experiment [1] concerns nematodes. In words: slowing response: number of body bends over 20 seconds on drug-containing assay plate. The conditions noted are these: acute treatment on plate containing no feed. Here is the method: Nematodes were bred on a lawn of E. coli OP50 coated on a 60-mm NGM plate (Genetics, 77, pp. 71-94, 1974) in an incubator at 20° C.
MAP hydrochloride was dissolved in sterilized pure water at a 100-fold concentration, and 50 μL of the solution was applied to a 35-mm NGM plate (5 mL). As a control group, sterilized water used as a solvent was similarly applied to prepare an assay plate. Apomorphine (hereinafter also abbreviated as “APO”) dissolved in 0.1% aqueous ascorbic acid as a solvent was applied as a solution of 100-fold concentration in a similar manner to prepare an assay plate. For a control group, 0.1% aqueous ascorbic acid was used. The periphery of each assay plate was applied with a 3.5 mol/L sucrose solution to prevent nematodes from invading the back of the plate. Adult-stage nematodes bred on the E. coli lawn were washed with S-basal buffer (Genetics, 77, pp. 71-94, 1974), then transferred to each of the aforementioned assay plates, and left at room temperature with light shielding for one hour in the MAP treatment or 30 minutes in the APO treatment, and the number of body bends over 20 seconds was counted under a stereoscopic microscope. […]

Experiment [2] deals with nematodes. In words: imipramine treatment: number of eggs laid during 90 minutes. Here is the method: Nematodes washed with S-basal buffer were transferred onto a 35-mm assay plate prepared by applying imipramine (hereinafter abbreviated as “IMI”) in the same manner as that used for MAP, and the number of eggs laid during 90 minutes was counted. Five nematodes were transferred to each plate, and the count was obtained for each plate.

Experiment [3] has as its system nematodes. In words: behavioral sensitization analysis: MAP pretreatment, washout on E. coli lawn, then drug challenge and body bend count. Here is the method:
MAP hydrochloride was dissolved in sterilized pure water at a 100-fold concentration, and 50 μL of the solution was applied to a 35-mm NGM plate (5 mL). As a control group, sterilized water used as a solvent was similarly applied to prepare an assay plate. Apomorphine (hereinafter also abbreviated as “APO”) dissolved in 0.1% aqueous ascorbic acid as a solvent was applied as a solution of 100-fold concentration in a similar manner to prepare an assay plate. For a control group, 0.1% aqueous ascorbic acid was used. The periphery of each assay plate was applied with a 3.5 mol/L sucrose solution to prevent nematodes from invading the back of the plate. Adult-stage nematodes bred on the E. coli lawn were washed with S-basal buffer (Genetics, 77, pp. 71-94, 1974), then transferred to each of the aforementioned assay plates, and left at room temperature with light shielding for one hour in the MAP treatment or 30 minutes in the APO treatment, and the number of body bends over 20 seconds was counted under a stereoscopic microscope. In the behavioral sensitization analysis, nematodes treated on the MAP-containing NGM plate for one hour were returned to the E. coli lawn, bred at 20° C. for a predetermined time and then treated with various drugs, and their behavior was observed.

Experiment [4] relates to nematodes. Briefly: screening for chemical substance inhibiting establishment of MAP-induced behavioral sensitization. The note with it: ondansetron 1 or 10 μM with 300 μM MAP and overnight; MAP challenge next day. Here is the method: In an incubator inside of which was maintained at 20° C., nematodes were bred on an Escherichia coli lawn prepared by applying the E. coli OP50 strain on a 60-mm NGM plate (Genetics, 77, pp. 71-94, 1974).
MAP hydrochloride was dissolved in pure water to prepare a 30 mM solution, and 50 μL of the solution was applied to a 35-mm NGM plate (5 mL) to prepare a 300 μM MAP plate. This MAP plate was further applied with 50 μL of an ondansetron solution (0.1 or 1 mM) dissolved in 100 mM NaCl or 0.1 N hydrochloric acid and adjusted to neutral pH by using NaOH to complete an assay plate. Nematodes (adults) bred on the Escherichia coli lawn were washed with S-basal buffer (Genetics, 77, pp. 71-94, 1974) for a short period of time, and then incubated on each of the aforementioned assay plates at 20° C. for one hour with light shielding. For this procedure, the periphery of each assay plate was applied with a 3.5 M sucrose solution to prevent nematodes from invading the back of the assay plate. […] On the following day, the nematodes were washed with S-basal buffer for a short period of time and transferred onto a MAP challenge plate prepared by applying 50 μL of a 10 μM MAP solution on a 35-mm NGM plate (5 mL), and the number of body bends over 20 seconds was counted under a stereoscopic microscope.

`CN1CCc2cccc3c2[C@H]1Cc1ccc(O)c(O)c1-3` [APO, Apomorphine]: the “locomotion (slowing response)” value with nematodes [1] is “induced slowing responses in a concentration-dependent manner; also recorded: inhibited the locomotion in a concentration-dependent manner”.

Turning to `CN(C)CCCN1c2ccccc2CCc2ccccc21` [IMI, imipramine], in the experiment on nematodes [2] (IMI applied on NGM plate, eggs laid during 90 minutes), the egg laying behavior result was “increased egg laying behavior in a concentration-dependent manner; also recorded: promoted egg laying in a concentration-dependent manner”.

Turning to `CN[C@@H](C)Cc1ccccc1` [MAP, methamphetamine], in the experiment with nematodes [1], the “locomotion (slowing response)” value is “inhibited locomotion of nematodes in a concentration-dependent manner; also recorded: inhibited the locomotion in a concentration-dependent manner”. In the experiment on nematodes [3] (300 μmol/L MAP experienced on the previous day, MAP challenge next day), the “susceptibility to MAP-induced slowing response (establishment of behavioral sensitization)” value is “increased susceptibility to a treatment with MAP was observed; also recorded: the susceptibility was increased”. In addition, in the experiment on nematodes [3] (MAP pretreatment on previous day at various concentrations), the “dependence of establishment of behavioral sensitization on MAP pretreatment concentration” value is on record as “dependent on the MAP concentration used for pretreatment; also recorded: dependent on the concentration of MAP experienced on the previous day”. Also, in the experiment on nematodes [3] (MAP pretreatment, APO challenge), the “APO-induced slowing response after MAP pretreatment (cross of behavioral sensitization)” value was “increased susceptibility to APO and induced slowing responses even at a low concentration; also recorded: enhanced by an MAP pretreatment”. Also, the “duration of MAP-induced behavioral sensitization” value with nematodes [3] (MAP washout period from pretreatment to challenge) is given as “at least 2 days”. Besides, the “influence of MAP pretreatment on IMI-induced egg-laying behavior” value in the experiment with nematodes [2] (MAP treatment on the previous day, IMI challenge) was “had no effect on IMI-induced egg-laying behavior; also recorded: had no influence on the egg-laying behavior promoted by IMI”.

On to `Cc1nccn1CC1CCc2c(c3ccccc3n2C)C1=O` (stereo not drawn) [ondansetron], for which the “establishment of MAP-induced behavioral sensitization” value in the experiment on nematodes [4] is recorded as “inhibition of establishment of MAP-induced behavioral sensitization; also recorded: exhibits an antagonistic action on the establishment of MAP-induced behavioral sensitization”.
